Legend:
Primary rat hepatocytes = assay: MTS/PMS cell viability (hepatotoxicity) assay, 24-hour exposure; assay type: cell-based; settings: Hepatocyte, 9-point dilution series, read-out: IC50 (cell viability, formazan absorbance as percent of untreated control)
Description: To measure the viability of hepatocytes after plating, an aqueous CellTiter Non-radioactive Cell Proliferation Assay may be used (Promega, Madison, Wis.). This assay can also be used to measure the hepatoxicity of a test compound.
In one example of the assay, hepatoxicity is determined by assaying rat hepatocytes for viability following a 24-hour exposure to a 9-point dilution series of compound (to allow assessment of dose). Cell viability is determined by measuring the absorbance of formazon, a product formed by the bioreduction of MTS/PMS, commercially available reagents. […]
With reference to FIG. 6, in a sterile 2 mL v-bottom assay block, dispense 2.5 μl of compound at 400× highest desired concentration to wells in column 3, rows B through G. (six different compounds per block, one for each row, edge wells are not used due to evaporation). […] Next, add 250 μL of media containing 0.2% Triton X-100 to column 2, rows E, F, and G. ODs (optical density or absorbance) from this well will be used to subtract out for background absorbance of dead cells and vehicle. […]
Day 3—MTS Addition and OD Reading
A. After 24 hours of incubation with drug, remove plates from incubator and add 40 μl MTS/PMS to each well. […] Read ODs at 490 nm after a 5 second shaking cycle in a ninety-six well spectrophotometer. […]

bile flow = settings: rats; cited from earlier work
[1] = system: human hepatoma cell line HepG2; settings: HepG2 cells incubated with compound; previous studies; cited from earlier work

Molecule | Nile Red binding (lipid accumulation) [1] | further results
O=c1ccc2ccccc2o1 [Coumarin] |  | IC50 (Primary rat hepatocytes): ~53 µM
C=C1[C@@H](C)[C@H]2[C@H](Cc3ccccc3)NC(=O)[C@]23OC(=O)/C=C/[C@H](O)CCC[C@@H](C)C/C=C/[C@H]3[C@@H]1O [cytochalasin B] |  | effect on bile flow (bile flow): prompt arrest of bile flow
CCSCC[C@H](N)C(=O)O [ethionine] | increased Nile Red binding | 
CCCC(CCC)C(=O)O [valproic acid] | increased Nile Red binding | 
estrogen | increased Nile Red binding | 

From patent US7817840B2, “Predicting hepatotoxicity using cell based assays” (Cytokinetics, Inc., priority 2003, dated 2010)
